Measured values taken from patent US7872045B2, “Combination therapy for glaucoma treatment” (Allergan, Inc., priority 2001, dated 2011).

What was measured:
[1] = target: T1, human EP3 receptor (hEP3, D isoform) (Homo sapiens, UniProt P43115); test: Radioligand binding competition vs [3H]PGE2, human recombinant EP3 receptor; settings: [3H]PGE2 competition, plasma membranes of transfected cells (COS-7 transient; HEK-293 also named), 60 min 25° C.
T1 construct: expressed in transfected cells; host or cells: COS-7 cells, transient transfection with pcDNA3 (lipofectin); plasma membrane fraction
T1 sequence (P43115 1-374 isoform P43115-4): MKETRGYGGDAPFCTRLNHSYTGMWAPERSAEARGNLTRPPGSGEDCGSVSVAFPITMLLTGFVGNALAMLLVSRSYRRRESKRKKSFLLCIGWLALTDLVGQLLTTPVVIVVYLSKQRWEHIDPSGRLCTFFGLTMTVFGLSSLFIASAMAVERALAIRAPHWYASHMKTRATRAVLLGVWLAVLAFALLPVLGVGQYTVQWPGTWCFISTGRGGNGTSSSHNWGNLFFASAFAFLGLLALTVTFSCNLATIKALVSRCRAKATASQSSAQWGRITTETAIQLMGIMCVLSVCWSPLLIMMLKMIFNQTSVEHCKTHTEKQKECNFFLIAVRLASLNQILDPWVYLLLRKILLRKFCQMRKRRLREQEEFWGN
Protocol: (§1) HEK-293 cells stably expressing the human or feline FP receptor, or EP1, EP2, EP3, or EP4 receptors were washed with TME buffer, scraped from the bottom of the flasks, and homogenized for 30 sec using a Brinkman PT 10/35 polytron. TME buffer was added to achieve a final 40 ml volume in the centrifuge tubes (the composition of TME is […]; ION HCl is added to achieve a pH of 7.4).
(§2) [^3H-] PGE2 (5 nM; specific activity 180 Ci mmol) was used as the radioligand for EP receptors. Binding studies employing EP1, EP2, EP3, EP4 were performed in duplicate in at least three separate experiments. A 200 μl assay volume was used. Incubations were for 60 min at 25° C. and were terminated by the addition of 4 ml of ice-cold 50 mM TRIS-HCl, followed by rapid filtration through Whatman GF/B filters and three additional 4 ml washes in a cell harvester (Brandel). Non-specific binding determined with 10^−5M of unlabeled PGE2,.
Human Recombinant EP3 and TP Receptors: Transient Transfectants.
Plasmids encoding the human EP3 (D isoform) or TP receptor were prepared by cloning the respective coding sequences into a pcDNA3 vector (Invitrogen). COS-7 cells were transfected with pcDNA3 containing cDNA encoding the EP3 or TP receptor by employing the lipofectin method, according to the manufacturers instructions (Gibco). For radioligand binding studies, cells were harvested two days after transfection.
Radioligand binding studies on plasma membrane fractions prepared from cells were performed as follows. Cells washed with TME buffer were scraped from the bottom of the plates and homogenized for 30 sec using a Brinkman PT 10/35 polytron. TME buffer was added as necessary to achieve a 40 ml volume in the centrifuge tubes. TME is comprised of 50 mM TRIS base, 10 mM MgCl2, 1 mM EDTA; pH 7.4 is achieved by adding 1 N HCl. The cell homogenate was centrifuged at 19,000 rpm for 20-25 min at 4° C. using a Beckman Ti-60 or T ? -70 rotor. The pellet was then resuspended in TME buffer to provide a final protein concentration of 1 mg/ml, as determined by Bio-Rad assay. Radioligand binding assays were performed in a 100 μl or 200 μl volume.
The binding of [^3H] PGE2 (specific activity 165 Ci/mmol) was determined in duplicate and, in at least 3 separate experiments. Incubations were for 60 min at 25° C. and were terminated by the addition of 4 ml of ice-cold 50 mM TRIS-HCl followed by rapid filtration through Whatman GF/B filters and three additional 4 ml washes in a cell harvester (Brandel). Competition studies were performed using a final concentration of 2.5 or 5 nM [H] PGE2 and non-specific binding was determined with 10^−5 M unlabelled PGE2.

[2] = target: T2, human EP2 receptor (hEP2) (Homo sapiens, UniProt P43116); test: Radioligand binding competition vs [3H]PGE2, human recombinant EP2 receptor; settings: [3H]PGE2 competition, plasma membranes of HEK-293 stable transfectants, 60 min 25° C.
T2 construct: expressed in transfected cells; plasma membrane fraction
T2 sequence (P43116 whole entry): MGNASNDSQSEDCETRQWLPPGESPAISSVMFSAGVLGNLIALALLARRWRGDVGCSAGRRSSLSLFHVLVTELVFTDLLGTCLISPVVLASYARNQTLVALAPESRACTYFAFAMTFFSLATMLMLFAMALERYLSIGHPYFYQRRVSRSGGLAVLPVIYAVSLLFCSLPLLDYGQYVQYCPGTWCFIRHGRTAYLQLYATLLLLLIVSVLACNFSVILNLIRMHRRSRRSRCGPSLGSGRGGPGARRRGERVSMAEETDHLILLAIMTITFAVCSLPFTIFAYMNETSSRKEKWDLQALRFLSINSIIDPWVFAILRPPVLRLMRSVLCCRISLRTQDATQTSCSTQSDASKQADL
Protocol: (§3) Human Recombinant EP1, EP2, EP4, and FP Receptors: Stable Transfectants
as §1
(§4) The cell homogenate was centrifuged at 19000 r.p.m. for 20 min at 4° C. using a Beckman Ti-60 rotor. The resultant pellet was resuspended in TME buffer to give a final 1 mg/ml protein concentration, as determined by Biorad assay. Radioligand binding competition assays vs. [^3H-]17 -phenyl PGF2α (5 nM) were performed in a 100 μl volume for 60 min. Binding reactions were started by adding plasma membrane fraction. The reaction was terminated by the addition of 4 ml ice-cold TRIS-HCl buffer and rapid filtration through glass fiber GF/B filters using a Brandel cell harvester. The filters were washed 3 times with ice-cold buffer and oven dried for one hour. Non-specific binding was determined with 10 uM unlabeled 17 -phenyl PGF2α.
as §2
(§5) Plasmids encoding the human EP1, EP2, EP4, and FP receptors were prepared by cloning the respective coding sequences into the eukaryotic expression vector pCEP4 (Invitrogen). The pCEP4 vector contains an Epstein Barr virus (EBV) origin of replication, which permits episomal replication in primate cell lines expressing EBV nuclear antigen (EBNA-1). Similarly, competitive experiments were caried out using [3H]17-phenylPGF2α at 5 nM in the presence of test ligands at various concentrations. Also non-specific binding was, determined in the presence of excess unlabeled PGF2α (10^−5 M).
(§6) It also contains a hygromycin resistance gene that is used for eukaryotic selection. The cells employed for stable transfection were human embryonic kidney cells (HEK-293) that were transfected with and express the EBNA-1 protein. These HEK-293-EBNA cells (Invitrogen) were grown in medium containing Geneticin (G418) to maintain expression of the EBNA-1 protein. HEK-293 cells were grown in DMEM with 10% fetal bovine serum (FBS), 250 μg ml G418 (Life Technologies) and 200 μg ml^−1 gentamicin or penicillin/streptomycin.
(§7) For transfection, the cells were grown to 50-60% confluency on 10 cm plates. The plasmid pCEP4 incorporating cDNA inserts for the respective human prostanoid receptor (20 μg) was added to 500 μl of 250 mM CaCl2. HEPES buffered saline ×2 (2×HBS, 280 mM NaCl, 20 mM HEPES acid, 1.5 mM Na2 HPO4, pH 7.05-7.12) was then added dropwise to a total of […], with continuous vortexing at room temperature. After 30 min, 9 ml DMEM were added to the mixture. The DNA/DMEM/calcium phosphate mixture was then added to the cells, which had been previously rinsed with 10 ml PBS. The cells were then incubated for 5 hr at 37° C. in humidified 95% air/5% CO2. The calcium phosphate solution was then removed and the cells were treated with 10% glycerol in DMEM for 2 min. The glycerol solution was then replaced by DMEM with 10% FBS. The cells were incubated overnight and the medium was replaced by DMEM/10% FBS containing 250 μg ml^−1 G418 and penicillin/streptomycin. The following day hygromycin B was added to a final concentration of 200 μg ml^−1. […]

[3] = target: T3, human EP4 receptor (hEP4) (Homo sapiens, UniProt P35408); test: Radioligand binding competition vs [3H]PGE2, human recombinant EP4 receptor; settings: [3H]PGE2 competition, plasma membranes of HEK-293 stable transfectants, 60 min 25° C.
T3 construct: expressed in transfected cells; plasma membrane fraction
T3 sequence (P35408 whole entry): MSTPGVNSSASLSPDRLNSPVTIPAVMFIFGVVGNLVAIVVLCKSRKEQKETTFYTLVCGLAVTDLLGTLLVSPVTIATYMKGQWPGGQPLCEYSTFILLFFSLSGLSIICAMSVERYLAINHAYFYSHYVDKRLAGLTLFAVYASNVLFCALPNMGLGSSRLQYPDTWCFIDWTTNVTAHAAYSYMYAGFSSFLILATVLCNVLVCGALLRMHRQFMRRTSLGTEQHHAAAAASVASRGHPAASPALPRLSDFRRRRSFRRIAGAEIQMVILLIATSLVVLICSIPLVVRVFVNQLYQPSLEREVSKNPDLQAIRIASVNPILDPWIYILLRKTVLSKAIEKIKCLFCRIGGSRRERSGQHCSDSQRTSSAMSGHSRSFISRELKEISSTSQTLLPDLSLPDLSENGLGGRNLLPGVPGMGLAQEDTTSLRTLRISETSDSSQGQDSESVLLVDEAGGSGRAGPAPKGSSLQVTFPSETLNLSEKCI
Protocol: as §3, §1, §4, §2, §5, §6, §7

Compound	IC50 [1] [µM]	IC50 [2] [µM]	IC50 [3] [µM]
O=C(O)CSCCCS[C@H]1C(=O)C[C@@H](O)[C@@H]1/C=C/[C@@H](O)CCc1cc2ccccc2s1 [Example 14H, {3-[(1R,2S,3R)-3-Hydroxy-2-((S)-(E)-3-hydroxy-5-(benzothienyl)pent-1-enyl)-5-oxocyclopentylsulfanyl]propylsulfanyl}acetic acid]	> 10	> 10	0.027
O=C(O)CSCCCS[C@H]1C(=O)C[C@@H](O)[C@@H]1/C=C/[C@@H](O)CCc1cc2ccccc2s1 [Example 14L, {3-[(1R,2S,3R)-3-Hydroxy-2-((S)-(E)-3-hydroxy-5-(benzothienyl)pent-1-enyl)-5-oxocyclopentylsulfanyl]propylsulfanyl}acetic acid]	> 10	≥ 10	0.013
C[C@@](O)(/C=C/[C@H]1[C@H](O)CC(=O)[C@@H]1SCCCSCC(=O)O)CCc1cc2ccccc2s1 [Example 34H, {3-[(1R,2S,3R)-3-Hydroxy-2-((S)-(E)-3-(hydroxy)-3-(methyl)-5-(benzothienyl)pent-1-enyl)-5-oxocyclopentylsulfanyl]propylsulfanyl}acetic acid]	> 10	> 10	0.032
